According to patent US9302999B2, “Substituted triazoles as herbicides” (E. I. DU PONT DE NEMOURS AND COMPANY, priority 2012, dated 2016):

How the values were obtained:
Assay type in all cases: in vivo
[1] = system: nutsedge, yellow (yellow nutsedge, Cyperus esculentus); experiment: Test C pre-/postemergence: nutsedge, yellow
Summary of the method: (§1)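 Visual injury scored 0–100 (100 = complete control) against untreated controls after 13–15 greenhouse days. Surfactant-containing solvent formulations applied either to soil after sowing (loam/sand) or over 1- to 4-leaf plants, 2–18 cm tall.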

[2] = system: pigweed (Amaranthus retroflexus); experiment: Test C pre-/postemergence: pigweed
Summary of the method: as §1

[3] = system: winter wheat (Triticum aestivum); experiment: Test C pre-/postemergence: winter wheat
Summary of the method: as §1

[4] = system: galium (catchweed bedstraw, Galium aparine); experiment: Test C pre-/postemergence: galium
Summary of the method: as §1

[5] = system: morningglory (Ipomoea spp.); experiment: Test A pre-/postemergence: morningglory
Summary of the method: (§2)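 Visual 0–100 injury ratings (0 no effect, 100 complete control) taken about ten days after treatment, relative to untreated controls. Preemergence treatment was a directed soil spray; postemergence plants were 2–10 cm tall at one- to two-leaf stage. Soil: loam/sand blend.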

[6] = system: large crabgrass (Digitaria sanguinalis); experiment: Test C pre-/postemergence: large crabgrass
Summary of the method: as §1

[7] = system: kochia (Kochia scoparia); experiment: Test C pre-/postemergence: kochia
Summary of the method: as §1

[8] = system: johnsongrass (Sorghum halepense); experiment: Test C pre-/postemergence: johnsongrass
Summary of the method: as §1

[9] = system: corn (Zea mays); experiment: Test A pre-/postemergence: corn; conditions: for Corn plant response rating: Postemergence; for Plant response rating, Corn: Preemergence
Summary of the method: as §2

[10] = system: ryegrass, Italian (Italian ryegrass, Lolium multiflorum); experiment: Test C pre-/postemergence: ryegrass, Italian
Summary of the method: as §1

[11] = system: barnyardgrass (Echinochloa crus-galli); experiment: Test A pre-/postemergence: barnyardgrass; conditions: for Barnyardgrass plant response rating: Postemergence; for Plant response rating, Barnyardgrass: Preemergence
Summary of the method: as §2

[12] = Postemergence, 31 g ai/ha, scale 0 to 100 (0 no effect, 100 complete control)
[13] = Postemergence, 62 g ai/ha, scale 0 to 100 (0 no effect, 100 complete control)
[14] = Postemergence, 125 g ai/ha, scale 0 to 100, 0 no effect, 100 complete control
[15] = Postemergence, 250 g ai/ha, scale 0 to 100
[16] = Preemergence, 31 g ai/ha, scale of 0 to 100, 0 is no effect, 100 is complete control
[17] = Preemergence, 62 g ai/ha, scale of 0 to 100, 0 is no effect, 100 is complete control
[18] = Preemergence, 125 g ai/ha, scale 0 to 100, 0 no effect, 100 complete control
[19] = Preemergence, 250 g ai/ha, scale 0 to 100, 0 no effect, 100 complete control
[20] = Postemergence, 125 g ai/ha, 0 to 100 scale, 0 is no effect, 100 is complete control
[21] = Postemergence, 500 g ai/ha, visual rating on 0 to 100 scale (0 no effect, 100 complete control), approximately ten days
[22] = Preemergence, 125 g ai/ha, 0 to 100 scale where 0 is no effect and 100 is complete control
[23] = Preemergence, 500 g ai/ha, 0 to 100 scale (0 no effect, 100 complete control)
[24] = 125 g ai/ha, 0 to 100 scale, 0 is no effect, 100 is complete control
[25] = 500 g ai/ha, visual rating on 0 to 100 scale (0 no effect, 100 complete control), approximately ten days
[26] = 125 g ai/ha, 0 to 100 scale where 0 is no effect and 100 is complete control
[27] = 500 g ai/ha, 0 to 100 scale (0 no effect, 100 complete control)

What does the source list for `Cc1nn(-c2ccc(C(F)(F)F)cc2)nc1Oc1ccnc(C(F)(F)F)c1` [Compound 120]?
Plant response rating, Nutsedge, Yellow [1, 12]: 0; Plant response rating, Nutsedge, Yellow [1, 13]: 0; Plant response rating, Nutsedge, Yellow [1, 14]: 0; Plant response rating, Nutsedge, Yellow [1, 15]: 0; Plant response rating, Nutsedge, Yellow [1, 16]: 0; Plant response rating, Nutsedge, Yellow [1, 17]: 0; Plant response rating, Nutsedge, Yellow [1, 18]: 0; Plant response rating, Nutsedge, Yellow [1, 19]: 0; Plant response rating, Pigweed [2, 12]: 95; Plant response rating, Pigweed [2, 13]: 98; Plant response rating, Pigweed [2, 14]: 98; Plant response rating, Pigweed [2, 15]: 100; Plant response rating, Pigweed [2, 16]: 100; Plant response rating, Pigweed [2, 17]: 100; Plant response rating, Pigweed [2, 18]: 100; Plant response rating, Pigweed [2, 19]: 100; Plant response rating, Wheat [3, 12]: 10; Plant response rating, Wheat [3, 13]: 10; Plant response rating, Wheat [3, 14]: 35; Plant response rating, Wheat [3, 15]: 35; Plant response rating, Wheat [3, 16]: 5; Plant response rating, Wheat [3, 17]: 25; Plant response rating, Wheat [3, 18]: 40; Plant response rating, Wheat [3, 19]: 50; Plant response rating, Galium [4, 12]: 80; Plant response rating, Galium [4, 13]: 80; Plant response rating, Galium [4, 14]: 85; Plant response rating, Galium [4, 16]: 98; Plant response rating, Galium [4, 17]: 100; Plant response rating, Galium [4, 18]: 100; Plant response rating, Galium [4, 19]: 100; Morningglory plant response rating [5, 20]: 90; Morningglory plant response rating [5, 21]: 100; Plant response rating, Morningglory [5, 22]: 10; Plant response rating, Morningglory [5, 23]: 30; Plant response rating, Crabgrass, Large [6, 12]: 5; Plant response rating, Crabgrass, Large [6, 13]: 25; Plant response rating, Crabgrass, Large [6, 14]: 25; Plant response rating, Crabgrass, Large [6, 15]: 45; Plant response rating, Crabgrass, Large [6, 16]: 100; Plant response rating, Crabgrass, Large [6, 17]: 100; Plant response rating, Crabgrass, Large [6, 18]: 100; Plant response rating, Crabgrass, Large [6, 19]: 100; Plant response rating, Kochia [7, 12]: 65; Plant response rating, Kochia [7, 13]: 95; Plant response rating, Kochia [7, 14]: 98; Plant response rating, Kochia [7, 15]: 98; Plant response rating, Kochia [7, 16]: 10; Plant response rating, Kochia [7, 17]: 90; Plant response rating, Kochia [7, 18]: 100; Plant response rating, Kochia [7, 19]: 100; Plant response rating, Johnsongrass [8, 12]: 0; Plant response rating, Johnsongrass [8, 13]: 5; Plant response rating, Johnsongrass [8, 14]: 25; Plant response rating, Johnsongrass [8, 15]: 45; Plant response rating, Johnsongrass [8, 16]: 25; Plant response rating, Johnsongrass [8, 17]: 80; Plant response rating, Johnsongrass [8, 18]: 95; Plant response rating, Johnsongrass [8, 19]: 98; Corn plant response rating [9, 24]: 20; Corn plant response rating [9, 25]: 50; Plant response rating, Corn [9, 26]: 20; Plant response rating, Corn [9, 27]: 30; Plant response rating, Ryegrass, Italian [10, 12]: 5; Plant response rating, Ryegrass, Italian [10, 13]: 5; Plant response rating, Ryegrass, Italian [10, 14]: 5; Plant response rating, Ryegrass, Italian [10, 15]: 30; Plant response rating, Ryegrass, Italian [10, 16]: 40; Plant response rating, Ryegrass, Italian [10, 17]: 90; Plant response rating, Ryegrass, Italian [10, 18]: 90; Plant response rating, Ryegrass, Italian [10, 19]: 95; Barnyardgrass plant response rating [11, 24]: 60; Barnyardgrass plant response rating [11, 25]: 80; Plant response rating, Barnyardgrass [11, 26]: 90; Plant response rating, Barnyardgrass [11, 27]: 100

With `COc1nn(-c2ccc(C(F)(F)F)cc2)nc1Cc1ccnc(C(F)F)c1` [Compound 138] as the compound, how does the “Plant response rating, Nutsedge, Yellow” value [1, 12] read?
Its value is 10.

And the “Plant response rating, Nutsedge, Yellow” value [1, 13]?
The value was 10.

What about the “Plant response rating, Nutsedge, Yellow” value [1, 14] of the same compound?
Its value is 15.

And the “Plant response rating, Nutsedge, Yellow” value [1, 15]?
The value was 20.

And the “Plant response rating, Nutsedge, Yellow” value [1, 16]?
Its value is 5.

And the “Plant response rating, Nutsedge, Yellow” value [1, 18]?
The value was 5.

And the “Plant response rating, Nutsedge, Yellow” value [1, 19]?
The value was 5.

And the “Plant response rating, Pigweed” value [2, 12]?
Its value is 98.

And the “Plant response rating, Pigweed” value [2, 13]?
The value was 98.

What about the “Plant response rating, Pigweed” value [2, 14] of the same compound?
The value was 98.

What about the “Plant response rating, Pigweed” value [2, 15] of the same compound?
The value was 100.

What about the “Plant response rating, Pigweed” value [2, 16] of the same compound?
Its value is 98.

What about the “Plant response rating, Pigweed” value [2, 17] of the same compound?
The value was 100.

What about the “Plant response rating, Pigweed” value [2, 18] of the same compound?
The value was 100.

What about the “Plant response rating, Pigweed” value [2, 19] of the same compound?
The value was 100.

What about the “Plant response rating, Wheat” value [3, 12] of the same compound?
The value was 10.

What about the “Plant response rating, Wheat” value [3, 13] of the same compound?
The value was 10.

What about the “Plant response rating, Wheat” value [3, 14] of the same compound?
The value was 35.

And the “Plant response rating, Wheat” value [3, 15]?
Its value is 35.

What about the “Plant response rating, Wheat” value [3, 17] of the same compound?
Its value is 5.

And the “Plant response rating, Wheat” value [3, 18]?
The value was 10.

And the “Plant response rating, Wheat” value [3, 19]?
The value was 50.

And the “Plant response rating, Galium” value [4, 12]?
The value was 85.

And the “Plant response rating, Galium” value [4, 13]?
The value was 90.

What about the “Plant response rating, Galium” value [4, 15] of the same compound?
The value was 90.

And the “Plant response rating, Galium” value [4, 16]?
The value was 95.

And the “Plant response rating, Galium” value [4, 17]?
Its value is 100.

What about the “Plant response rating, Galium” value [4, 18] of the same compound?
Its value is 100.

And the “Plant response rating, Galium” value [4, 19]?
Its value is 100.

And the “Plant response rating, Morningglory” value [5, 20]?
Its value is 100.

And the “Morningglory plant response rating” value [5, 21]?
The value was 100.

What about the “Plant response rating, Morningglory” value [5, 22] of the same compound?
The value was 70.

What about the “Plant response rating, Morningglory” value [5, 23] of the same compound?
Its value is 90.

And the “Plant response rating, Crabgrass, Large” value [6, 12]?
Its value is 45.

And the “Plant response rating, Crabgrass, Large” value [6, 13]?
The value was 50.

And the “Plant response rating, Crabgrass, Large” value [6, 14]?
The value was 55.

What about the “Plant response rating, Crabgrass, Large” value [6, 15] of the same compound?
The value was 95.

What about the “Plant response rating, Crabgrass, Large” value [6, 16] of the same compound?
The value was 98.

What about the “Plant response rating, Crabgrass, Large” value [6, 17] of the same compound?
The value was 100.

What about the “Plant response rating, Crabgrass, Large” value [6, 18] of the same compound?
Its value is 100.

What about the “Plant response rating, Crabgrass, Large” value [6, 19] of the same compound?
Its value is 100.

And the “Plant response rating, Kochia” value [7, 12]?
Its value is 95.

And the “Plant response rating, Kochia” value [7, 13]?
The value was 95.

What about the “Plant response rating, Kochia” value [7, 14] of the same compound?
Its value is 98.

And the “Plant response rating, Kochia” value [7, 15]?
Its value is 98.

And the “Plant response rating, Kochia” value [7, 16]?
Its value is 55.

And the “Plant response rating, Kochia” value [7, 17]?
Its value is 65.

What about the “Plant response rating, Kochia” value [7, 18] of the same compound?
The value was 85.

What about the “Plant response rating, Kochia” value [7, 19] of the same compound?
Its value is 90.

And the “Plant response rating, Johnsongrass” value [8, 12]?
Its value is 45.

And the “Plant response rating, Johnsongrass” value [8, 13]?
Its value is 45.

And the “Plant response rating, Johnsongrass” value [8, 14]?
Its value is 45.

What about the “Plant response rating, Johnsongrass” value [8, 15] of the same compound?
The value was 95.

And the “Plant response rating, Johnsongrass” value [8, 16]?
Its value is 45.

And the “Plant response rating, Johnsongrass” value [8, 17]?
The value was 85.

What about the “Plant response rating, Johnsongrass” value [8, 18] of the same compound?
Its value is 98.

And the “Plant response rating, Johnsongrass” value [8, 19]?
Its value is 100.

And the “Corn plant response rating” value [9, 24]?
The value was 50.

And the “Corn plant response rating” value [9, 25]?
Its value is 70.

And the “Plant response rating, Corn” value [9, 26]?
The value was 30.

What about the “Plant response rating, Corn” value [9, 27] of the same compound?
Its value is 60.

And the “Plant response rating, Ryegrass, Italian” value [10, 12]?
Its value is 40.

What about the “Plant response rating, Ryegrass, Italian” value [10, 13] of the same compound?
Its value is 55.

What about the “Plant response rating, Ryegrass, Italian” value [10, 14] of the same compound?
Its value is 60.

What about the “Plant response rating, Ryegrass, Italian” value [10, 15] of the same compound?
Its value is 75.

And the “Plant response rating, Ryegrass, Italian” value [10, 16]?
The value was 10.

And the “Plant response rating, Ryegrass, Italian” value [10, 17]?
The value was 40.

What about the “Plant response rating, Ryegrass, Italian” value [10, 18] of the same compound?
The value was 70.

What about the “Plant response rating, Ryegrass, Italian” value [10, 19] of the same compound?
Its value is 90.

And the “Barnyardgrass plant response rating” value [11, 24]?
The value was 90.

And the “Barnyardgrass plant response rating” value [11, 25]?
The value was 90.

What about the “Plant response rating, Barnyardgrass” value [11, 26] of the same compound?
The value was 90.

And the “Plant response rating, Barnyardgrass” value [11, 27]?
Its value is 100.
